Seven molecules from ChEMBL document CHEMBL1629695, “A novel polymyxin derivative that lacks the fatty acid tail and carries only three positive charges has strong synergism with agents excluded by the intact outer membrane” (Antimicrob Agents Chemother, 2010) can be followed below.

Common to all, as to format: functional
The test system of test [1] is Pseudomonas aeruginosa. The test can be described thus: Antimicrobial activity against Pseudomonas aeruginosa ATCC 27853 assessed as zone of inhibition at 10 ug after 18 hrs by disk diffusion method.
The subject of test [2] is Acinetobacter baumannii. The test can be described thus: Antimicrobial activity against Acinetobacter baumannii ATCC 19606 assessed as zone of inhibition at 10 ug after 18 hrs by disk diffusion method in presence of 1 ug/ml rifampin.
Test [3] has as its system Escherichia coli. The test can be described thus: Antimicrobial activity against Escherichia coli IH3080 assessed as zone of inhibition at 10 ug after 18 hrs by disk diffusion method in presence of 1 ug/ml rifampin.
Test [4] relates to Acinetobacter baumannii. The test can be described thus: Antimicrobial activity against Acinetobacter baumannii ATCC 19606 assessed as zone of inhibition at 10 ug after 18 hrs by disk diffusion method.
For test [5], the system named is Pseudomonas aeruginosa. The test can be described thus: Antimicrobial activity against Pseudomonas aeruginosa ATCC 27853 assessed as zone of inhibition at 10 ug after 18 hrs by disk diffusion method in presence of 1 ug/ml rifampin.
The test system of test [6] is Escherichia coli. The test can be described thus: Antimicrobial activity against Escherichia coli IH3080 assessed as zone of inhibition at 10 ug after 18 hrs by disk diffusion method.

Bridge positions count the residues as written; N and C are the ends. Square brackets hold non-standard residues; d marks the D form. Peptide text beside a SMILES is read from it. * marks the point of attachment. Octanoyl = CCCCCCCC(=O)*; Dab = NCC[C@H](N)C(=O)O; Abu = CC[C@H](N)C(=O)O

As to `CN[C@H](C(=O)N[C@H](CO)C(=O)N[C@H]1CCNC(=O)[C@H]([C@@H](C)O)NC(=O)[C@H](CCN)NC(=O)[C@H](CCN)NC(=O)[C@H](CC(C)C)NC(=O)[C@@H](Cc2ccccc2)NC(=O)[C@H](CCN)NC1=O)[C@@H](C)O`, the “inhibition zone (IZ)” value in test [1] amounted to 7 mm2; in test [2], 79 mm2; in test [3], 130 mm2; in test [4] it was 3 mm2; in test [5] it was 38 mm2; in test [6], 3 mm2.

On to `CC(=O)N[C@H](C(=O)N[C@H](CC(N)=O)C(=O)N[C@H]1CCNC(=O)[C@H]([C@@H](C)O)NC(=O)[C@H](CCN)NC(=O)[C@H](CCN)NC(=O)[C@H](CC(C)C)NC(=O)[C@@H](Cc2ccccc2)NC(=O)[C@H](CCN)NC1=O)[C@@H](C)O`, for which the “inhibition zone (IZ)” value in test [1] is on record as 3 mm2; in test [2] it was 154 mm2; in test [3], 110 mm2; in test [4], 3 mm2; in test [5], 3 mm2; in test [6] it was 3 mm2.

For the molecule `CCCCCCCC(=O)N[C@H](C(=O)N[C@H](CO)C(=O)N[C@H]1CCNC(=O)[C@H]([C@@H](C)O)NC(=O)[C@H](CCN)NC(=O)[C@H](CCN)NC(=O)[C@H](CC(C)C)NC(=O)[C@@H](Cc2ccccc2)NC(=O)[C@H](CCN)NC1=O)[C@@H](C)O` (Octanoyl-T[dS][Dab][Dab][dF]L[Dab][Dab]T; lactam 3-C), the “inhibition zone (IZ)” value in test [1] came out at 81 mm2; in test [2], 395 mm2; in test [3], 212 mm2; in test [4] it was 161 mm2; in test [5], 87 mm2; in test [6] it was 170 mm2.

Turning to `CCCCCCCC(=O)N[C@H](C(=O)N[C@@H](CC)C(=O)N[C@H]1CCNC(=O)[C@H]([C@@H](C)O)NC(=O)[C@H](CCN)NC(=O)[C@H](CCN)NC(=O)[C@H](CC(C)C)NC(=O)[C@@H](Cc2ccccc2)NC(=O)[C@H](CCN)NC1=O)[C@@H](C)O` (Octanoyl-T[Abu][Dab][Dab][dF]L[Dab][Dab]T; lactam 3-C), the “inhibition zone (IZ)” value was determined as 2 mm2 in test [1]; 252 mm2 in test [2]; 206 mm2 in test [3]; 3 mm2 in test [4]; 55 mm2 in test [5]; 32 mm2 in test [6].

As for POLYMYXIN B, the inhibition zone (IZ) stood at 151 mm2 in test [1]; 202 mm2 in test [2]; 133 mm2 in test [3]; 185 mm2 in test [4]; 166 mm2 in test [5]; 129 mm2 in test [6].

Consider `CC(C)C[C@@H]1NC(=O)[C@@H](Cc2ccccc2)NC(=O)[C@H](CCN)NC(=O)[C@@H](NC(=O)[C@H](CCN)NC(=O)[C@@H](N)[C@@H](C)O)CCNC(=O)[C@H]([C@@H](C)O)NC(=O)[C@H](CCN)NC(=O)[C@H](CCN)NC1=O` [POLYMYXIN B NONAPEPTIDE] (H-T[Dab][Dab][Dab][dF]L[Dab][Dab]T; lactam 3-C), for which the “inhibition zone (IZ)” value is 144 mm2 in test [1]; 155 mm2 in test [2]; 143 mm2 in test [3]; 3 mm2 in test [4]; 169 mm2 in test [5]; 3 mm2 in test [6].

Take `CC(=O)N[C@H](C(=O)NCCCC(=O)N[C@H]1CCNC(=O)[C@H]([C@@H](C)O)NC(=O)[C@H](CCN)NC(=O)[C@H](CCN)NC(=O)[C@H](CC(C)C)NC(=O)[C@@H](Cc2ccccc2)NC(=O)[C@H](CCN)NC1=O)[C@@H](C)O`: the “inhibition zone (IZ)” value in test [1] is reported as 3 mm2; in test [2], 9 mm2; in test [3], 8 mm2; in test [4] it was 3 mm2; in test [5], 3 mm2; in test [6], 3 mm2.
